PubChem BioAssay AID1648 (Sanford-Burnham Center for Chemical Genomics, 2009)
Activity calls are given as the source filed them. The rule behind the calls is not given here.

These compounds were tested against Serine/threonine-protein kinase mTOR (Homo sapiens) (UniProt P42345) (assay: mTOR FRB domain ligand binding – biophysical, NMR (AID 1648)). Conditions: NMR binding to FRB domain, chemical shift.
Chain of Serine/threonine-protein kinase mTOR (Homo sapiens) (P42345 2015-2114): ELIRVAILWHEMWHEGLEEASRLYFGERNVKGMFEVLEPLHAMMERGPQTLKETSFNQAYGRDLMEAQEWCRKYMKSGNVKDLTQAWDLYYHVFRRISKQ

Compound	Kd
NC(=O)CSc1ccc(-c2ccccc2)nn1	> 4 mM (inactive)
O=C1CCCC(=O)N1Cc1ccco1	> 4 mM (inactive)
Cc1c(C)c2c(c(C)c1O)CCC(C)(CCCC(C)CCCC(C)CCCC(C)C)O2 (stereo unspecified)	> 4 mM (inactive)
CCOC(=O)C1CCN(c2ncnc3nc[nH]c23)CC1	> 4 mM (inactive)
CC(CCC(=O)O)[C@H]1CCC2C3C[C@H](O)[C@@H]4C[C@H](O)CC[C@]4(C)C3CC[C@@]21C (stereo partly specified)	> 4 mM (inactive)
NNC(=O)c1ccccc1-n1cccc1	> 4 mM (inactive)
c1ccc2c(NC3=NCCS3)cccc2c1	> 4 mM (inactive)
Cc1cccc(C)c1NC(=O)/C=C/C(=O)O	> 4 mM (inactive)
NC(=O)C1CCN(CC2CC=CCC2)CC1 (stereo unspecified)	> 4 mM (inactive)
NS(=O)(=O)c1ccc(NC(=O)C2CC2)cc1	> 4 mM (inactive)
O=C(Nc1ccon1)c1ccc2c(c1)OCO2	> 4 mM (inactive)
COc1ccc(NC(=O)/C=N/O)cc1	> 4 mM (inactive)
OCc1cccs1	> 4 mM (inactive)
Cc1ccccc1NC(=O)c1ccccc1	> 4 mM (inactive)
S=C(c1ccc2c(c1)OCO2)N1CCCC1	> 4 mM (inactive)
Cc1occc1C(=O)Nc1ccc(C(N)=O)cc1	> 4 mM (inactive)
COc1ccc(-c2coc3cc(OC(C)=O)cc(OC(C)=O)c3c2=O)cc1	> 4 mM (inactive)
CC(C)NC1CS(=O)(=O)CC1O (stereo unspecified)	> 4 mM (inactive)
CC(=O)Nc1ccc(NC(C)=O)c(C(F)(F)F)c1	> 4 mM (inactive)
CC(=O)Nc1ccc(C(=O)NC2=NCCS2)cc1	> 4 mM (inactive)
Cc1cc(C)n(-c2ccc(Cl)nn2)n1	> 4 mM (inactive)
Cc1cc(C)n2c(SCc3c(C)noc3C)nnc2n1	> 4 mM (inactive)

Compound	Kd
O=C(c1cnsn1)N1CCN(c2ccccc2)CC1	> 4 mM (inactive)
CC(C)(C#N)O[C@@H]1O[C@H](CO)[C@@H](O)[C@H](O)[C@H]1O	> 4 mM (inactive)
CC1(C)Cc2cccc(C(=O)O)c2O1	> 4 mM (inactive)
CC(C)CCCC(C)[C@H]1CCC2C3CC[C@H]4CC(=O)CC[C@]4(C)C3CC[C@@]21C (stereo partly specified)	> 4 mM (inactive)
CSc1nnc(CN2CCSCC2)n1C	> 4 mM (inactive)
COC(=O)c1ccc2nsnc2c1	> 4 mM (inactive)
Cc1ccc(S(=O)(=O)CC(=O)N(C)C)cc1	> 4 mM (inactive)
O=C(c1cccc(C(F)(F)F)c1)N1CCCC1	> 4 mM (inactive)
Nc1cccc(-c2cnco2)c1	> 4 mM (inactive)
COc1ccc2c(c1)OC[C@@H](Cc1ccc(OC)c(OC)c1)[C@H]2O	> 4 mM (inactive)
CC(=O)Oc1ccc(O)cc1	> 4 mM (inactive)
O=c1[nH]nc(Cc2ccccn2)c2ccccc12	> 4 mM (inactive)
O=c1n(-c2cccc(Cl)c2)c(=O)n2n1CCC2	> 4 mM (inactive)
CNC[C@@H](O)c1ccc(O)c(O)c1	> 4 mM (inactive)
COC(=O)c1scc(S(C)(=O)=O)c1-n1cccc1	> 4 mM (inactive)
O=c1ccn(Cc2ccccc2)c(=O)[nH]1	> 4 mM (inactive)
Nc1nc2[nH]c(=O)c(=O)[nH]c2c(=O)[nH]1	> 4 mM (inactive)
NC(=O)c1sc2ccccc2c1Cl	> 4 mM (inactive)
CN=C(c1ccc([N+](=O)[O-])cc1)N(C)C	> 4 mM (inactive)
O=C1CN(c2ccccc2)CC(=O)N1	> 4 mM (inactive)
Cc1ccc(S(=O)(=O)CC(=O)N2CCCC2)cc1	> 4 mM (inactive)
COc1c(O)cc(O)cc1O	> 4 mM (inactive)

Compound	Kd
O=C(c1ccccc1)c1ccc(N2CCNCC2)cc1	> 4 mM (inactive)
CCC(C)C(=O)c1c(O)c(C)c2oc3c(C)c(O)c(C(=O)C(C)CC)c(O)c3c2c1O (stereo unspecified)	> 4 mM (inactive)
C=C1[C@H]2CC[C@@]3(C)[C@H](c4ccoc4)OC(=O)C[C@]13O[C@H]1C[C@H](O)C(C)(C)[C@H](CC(=O)OC)[C@]12C	> 4 mM (inactive)
O=C(c1ccco1)N1CCCN(C(=O)c2ccco2)CC1	> 4 mM (inactive)
Cc1nnc(NCCO)[nH]c1=O	> 4 mM (inactive)
CC(=O)Nc1cc(O)cc(O)c1	> 4 mM (inactive)
Cc1cc(C)c(C(N)=O)c(=S)[nH]1	> 4 mM (inactive)
O=c1oc(-c2ccccc2)nc2c1cnn2-c1ccccc1	> 4 mM (inactive)
Nc1cccc2cccnc12	> 4 mM (inactive)
CC(=O)Oc1cc(OC(C)=O)c2c(c1)O[C@H](c1ccc(OC(C)=O)c(OC(C)=O)c1)[C@H](OC(C)=O)C2	> 4 mM (inactive)
CC(=O)N1CCC(NC2CCCCCC2)CC1	> 4 mM (inactive)
Nc1n[nH]c(=S)n1-c1ccccc1	> 4 mM (inactive)
O=C1CCC([N+](=O)[O-])C(c2ccccc2F)N1 (stereo unspecified)	> 4 mM (inactive)
c1ccc(-c2n[nH]c(-c3ccccn3)n2)nc1	> 4 mM (inactive)
Cc1csc(NC(=O)c2cccs2)n1	> 4 mM (inactive)
CC1=CCc2c(cc3oc(C)cc(=O)c3c2O)OC1	> 4 mM (inactive)
N/C(=N/O)C1COc2ccccc2O1 (stereo unspecified)	> 4 mM (inactive)
O=C1C=CC2=C3c4cc(O)c(O)cc4CC3(O)COC2=C1O (stereo unspecified)	> 4 mM (inactive)
O=P(c1ccccc1)(c1ccccc1)C1CCOCC1	> 4 mM (inactive)
Nc1ccc(O)cn1	> 4 mM (inactive)
CN1CCC(NC(=S)NC2CC2)CC1	> 4 mM (inactive)
O=C1C=C(O)c2ccccc2C1=O	> 4 mM (inactive)

Compound	Kd
CN1C(CC(=O)c2ccccc2)CCCC1CC(O)c1ccccc1 (stereo unspecified)	> 4 mM (inactive)
CC1(C)CC2C1CC[C@]1(C)CCC3C(C(=O)O)CC(=O)O[C@@]32C1 (stereo partly specified)	> 4 mM (inactive)
O=C1CSC(=O)N1c1cccc(O)c1	> 4 mM (inactive)
O=C(O)Cc1noc2ccccc12	> 4 mM (inactive)
CC1CN=C(Nc2ccccc2)S1 (stereo unspecified)	> 4 mM (inactive)
Cc1ccn(S(=O)(=O)c2ccc(C(C)(C)C)cc2)n1	> 4 mM (inactive)
CCN1C(=O)N(CO)C2C1N(C)C(=O)N2C (stereo unspecified)	> 4 mM (inactive)
OC/C=C/c1ccc(O)c(O)c1	> 4 mM (inactive)
Nc1cc(=O)[nH]c(SCC(=O)NC2CCCCC2)n1	> 4 mM (inactive)
O=C(O)C1Cc2c([nH]c3ccccc23)CN1 (stereo unspecified)	> 4 mM (inactive)
Nc1nc2n(c1C(=O)c1ccccc1)CCC2	> 4 mM (inactive)
O=C(c1ccc(Cl)s1)N1CCOCC1	> 4 mM (inactive)
Cc1cc(C(=O)NCc2cccnc2)cs1	> 4 mM (inactive)
Cc1cc(C(=O)N2CCC3(CC2)OCCO3)cs1	> 4 mM (inactive)
CC(=O)CNc1cc(CNC(C)=O)c(C)cc1C	> 4 mM (inactive)
Nc1ncnc(Nc2ccccc2C(F)(F)F)n1	> 4 mM (inactive)
CC(=O)Oc1c2c(c(CC=C(C)C)c3c1C(=O)C1=C[C@@H]4CC5C(C)(C)OC(C/C=C(\C)C(=O)O)(C4=O)[C@@]15O3)OC(C)(CCC=C(C)C)C=C2 (stereo partly specified)	> 4 mM (inactive)
COc1ccc2nc(NC(=O)c3cnccn3)sc2c1	> 4 mM (inactive)
CCOc1ccc2nc(NS(C)(=O)=O)sc2c1	> 4 mM (inactive)
Oc1ccc2nonc2c1	> 4 mM (inactive)
